Laboratory results reported in patent US20250235543A1, “MODIFIED PROTEINS AND PROTEIN DEGRADERS” (Cullgen (Shanghai), Inc., priority 2021, published 2025).

Key:
Format in all cases: cell-based
P300 and CBP [1] = test: Immunoblot of P300 and CBP protein levels in LNCaP, Calu-1, NCI-H1703 or MM.1R cells; details: Calu-1, NCI-H1703 or MM.1R cell lines, 8 hours
From the text: Additional exemplary heterobifunctional compounds were designed to modulate the protein levels of either P300/CBP, or BRD4, and characterized in multiple cell lines. […] Taken together, DDB1 ligands conjugating with different target ligands may modulate the cellular target protein levels of cyclin D, CDK4/6, P300/CBP and BRD4.

P300/CBP = P300/CBP cellular protein degradation
In short: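 Treated cells lysed in RIPA buffer with protease and phosphatase inhibitors, protein normalized by BCA assay. P300/CBP levels assessed by SDS-PAGE Western blot with ECL detection and band densitometry.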

P300 and CBP [2] = test: Immunoblotting of P300 and CBP protein levels in multiple cell lines; details: LNCaP, Calu-1, NCI-H1703, or MM.1R cells, 8 hours
Experimental: LNCaP, Calu-1, NCI-H1703, or MM.1R cells were treated with CPD-191 at indicated concentrations for 8 hours.
(§1) Cultured cells were washed with cold PBS once and lysed in cold RIPA buffer supplemented with protease inhibitors and phosphatase inhibitors (Beyotime Biotechnology). The solutions were then incubated at 4° C. for 30 min with gentle agitation to fully lysed cells. Cell lysates were centrifuged at 13,000 rpm for 10 min at 4° C. and pellets were discarded. Total protein concentrations in the lysates were determined following BCA assays (Beyotime Biotechnology). Cell lysates were mixed with Laemmli loading buffer and heated at 99° C. for 5 min. Proteins were resolved on SDS-PAGE and visualized using Western ECL Substrate kits on a ChemiDoc MP Imaging system (Bio-Rad). Protein bands were quantitated using the Image Lab software provided by Bio-Rad.

[3] = test system: cyclin D1, cyclin D2, cyclin D3; test: Immunoblot of cyclin D protein levels in Calu-1 (and BT-549) cells; details: Calu-1 cells, 8 hours, dose range
Calu-1 = test: Cell viability assay, Calu-1; details: Calu-1 cells, 96-well plates, serial dilution, 3 days
Experimental: Cells were treated with CDK4/6 inhibitors palbociclib, ribociclib, or abemaciclib, or heterobifunctional compounds CPD-002 or CPD-031 following a 9-point serial dilution for 3 days.
(§2) Cells were seeded at a density of 2,000-5,000 cells per well in 96-well assay plates and treated with test compounds following a 10-point serial dilution for 3-6 days. Cell viability was determined using the CellTiter-Lumi assay kit according to the manufacturer's instructions. The dose-response curves were determined and IC50 values were calculated using the GraphPad Prism software following a nonlinear regression (least squares fit) method. Data presented was mean±standard deviation (SD) unless otherwise indicated.

Calu-1 cells = test: Anti-viability / anti-proliferation in Calu-1 cells; details: 3 days
Experimental: FIG. 6 show immunoblots of cyclin D1, cyclin D2, cyclin D3, and CDK4 proteins expressed by Calu-1 cells after treatment with a dose range of control compounds CPD-042 (A), or CPD-049 (B) for 16 hours, and anti-viability curves of Calu-1 cells in the presence of CPD-002 and CPD-042 (C), or CPD-031 and CPD-049 (D).
FIG. 11A-11B show immunoblots of cyclin D1, CDK4, and CDK6 proteins expressed by Calu-1 cells after treatment with a dose range of heterobifunctional reference compound CP-10, or BSJ-03-123 for 8 hours (FIG. 11A), and anti-viability curves of Calu-1 cells in the presence of CP-10, or BSJ-03-123 for 3 days (FIG. 11B).
(§3) To verify that heterobifunctional compound-mediated degradation is dependent on the binding to CDK4-cyclin D complex, we designed three negative control compounds, CPD-042, CPD-049 and CPD-380, which are derived from CPD-002 CPD-031 and CPD-343, respectively. These three control compounds bear the same DDB1 ligand and linker as their corresponding active heterobifunctional compounds but with modified warheads to impair the binding of the control compounds to CDK4. […] However, the binding to CDK4 is not sufficient for cyclin D degradation. Two cereblon (CRBN)-recruiting reference heterobifunctional compounds, CP-10 (Su, J Med Chem, 2019; CAS No.: 2366268-80-4) and BSJ-03-123 (Brand, Cell Chem Biol, 2019; CAS No.: 2361493-16-3) were analyzed in Calu-1 cells.

[4] = test system: cyclin D1, cyclin D2, cyclin D3, CDK4 and CDK6; test: Immunoblotting of cyclin D and CDK4/6 protein levels in Calu-1 cells; details: indicated concentrations, 8 hours
Experimental: Calu-1 (FIG. 2A) or BT-549 (FIG. 2B) cells were treated with CPD-002, CPD-004, or palbociclib at indicated concentrations for 16 hours.
Calu-1 cells were treated with CPD-031 at indicated concentrations for 16 hours.
Calu-1 cells were treated with CPD-002 or CPD-031 at 500 nM or 100 nM, respectively for indicated period of time.
Calu-1 cells were pre-treated with DMSO, 20 μM MG-132 (MG), 5 μM MLN4924 (MLN) or 1 μM TAK-243 (TAK) for 2 hours, and subsequently incubated with 500 nM CPD-002, 500 nM CPD-004, or 100 nM CPD-031 for another 4 h or 2 h prior to immunoblotting (FIG. 5A-5B).
Calu-1 cells were treated with a dose range of negative control compounds CPD-042 or CPD-049 for 16 hours (FIG. 6A-6B).
Calu-1 cells were treated with reference compounds CP-10 or BSJ-03-123 at indicated concentrations for 8 hours.
as §1

CDK4, CDK6 = test: Immunoblot of CDK4 and CDK6 protein levels in Calu-1 cells; details: 8 hours, dose range
Experimental: Specific exemplary heterobifunctional compounds were characterized in Calu-1, BT-549 and other cells. Cells that express cyclin D1-3 and CDK4/6 proteins were treated with heterobifunctional compounds disclosed herein at indicated concentrations for 16 hours. Cells were collected, lysed and subject to immunoblotting using an antibody specific to cyclin D1, cyclin D2, cyclin D3, CDK4, CDK6 or phosphorylated R^b proteins. Tubulin or GAPDH was used as the loading control. DMSO treatment was used as the negative control.
In a time-course study, Calu-1 cells were treated with 500 nM CPD-002, or 100 nM CPD-031 for indicated period of time prior to immunoblotting (FIG. 4A-4B).
To verify that heterobifunctional compound-mediated degradation is dependent on the binding to CDK4-cyclin D complex, we designed three negative control compounds, CPD-042, CPD-049 and CPD-380, which are derived from CPD-002 CPD-031 and CPD-343, respectively. These three control compounds bear the same DDB1 ligand and linker as their corresponding active heterobifunctional compounds but with modified warheads to impair the binding of the control compounds to CDK4. […] Two cereblon (CRBN)-recruiting reference heterobifunctional compounds, CP-10 (Su, J Med Chem, 2019; CAS No.: 2366268-80-4) and BSJ-03-123 (Brand, Cell Chem Biol, 2019; CAS No.: 2361493-16-3) were analyzed in Calu-1 cells.

Cyclin D = test: Immunoblotting of degradation in T47D cells; details: dose range, 48 hours
Experimental: T47D cells were treated with a dose range of heterobifunctional compound CPD-343 or its negative control compound CPD-380 for 48 hours.
as §1

T47D cells [5] = test: Cell viability assay, T47D; details: 10-point serial dilution, 6 days
Experimental: T47D cells were seeded in 96-well plates and treated with of CP-343, or CPD-380 following a 10-point serial dilution for 6 days.
as §2

[6] = test system: cyclin D1, cyclin D3, CDK4; test: Immunoblot of cyclin D and CDK4 degradation in T47D cells; details: 48 hours, CPD-380 vs CPD-343
Experimental: (§4) FIG. 10A-10B show immunoblots of cyclin D1, cyclin D3, CDK4, p-Rb, FoxM1 and cyclin A2 proteins expressed by T47D cells after treatment with a dose range of heterobifunctional compound CPD-343, or its control compound CPD-380 for 48 hours (FIG. 10A), and anti-viability curves of T47D cells in the presence of CP-343, or CPD-380 for 6 days (FIG. 10B).
as §3

T47D cells [7] = test: Flow cytometric analysis of Annexin V/7-AAD stained T47D cells; details: 6 days
Experimental: ER^+ breast cancer T47D cells were treated with DMSO, palbociclib, heterobifunctional compound CPD-343, or negative control compound CPD-380 for 6 days at doses approximating IC50 and IC90 concentrations determined in FIGS. 10A and 13. Cells were harvested by trypsinization, staining was carried out using the Annexin V Apoptosis Detection Kit. The percentages of early apoptotic (Annexin V^+7-AAD^−, lower right quadrant), late apoptotic (Annexin V^+7-AAD^+, upper right quadrant) and necrotic cells (Annexin V-7-AAD^+, upper left quadrant) are indicated on dot plots. […] Furthermore, we developed one ER^+ breast cancer T47D model with acquired resistance after long period of treatment with 1 μM palbociclib (over IC90). Cells were deemed resistant when growing in the presence of palbo at the same rate as parental cells. Palbo resistance was determined by CellTiter-Lumi cell viability assay.

T47D cells [8] = test: Anti-viability / anti-proliferation in T47D cells; details: 6 days, CPD-380 vs CPD-343
Experimental: as §4, §3

T47D cells [9] = test: Annexin V apoptosis flow cytometry in T47D cells; details: 6 days, doses approximating IC50 and IC90
Experimental: T47D cells were treated with DMSO, palbociclib, heterobifunctional compound CPD-343, or negative control compound CPD-380 for 6 days at doses approximating IC50 and IC90 concentrations as indicated. Cells were harvested by trypsinization, staining was carried out using the Annexin V Apoptosis Detection Kit.
Assays were performed on the CytoFLEX Cytometer (Beckman Coulter), and data were analyzed using CytExpert software. For cell death and apoptosis analysis, cells were harvested by trypsinization, staining was carried out using the Annexin V Apoptosis Detection Kit (BD Biosciences). Briefly, cells were resuspended in 1× binding buffer and incubated with fluorochrome-conjugated Annexin V and 7-AAD for 15 min in darkness at room temperature.

## CC(=O)N1CCc2c(c(N3CCCc4cc(-c5cnn(C)c5)c(C(F)F)cc43)nn2C2CCN(CC(=O)NCCCCNc3ccc(C(=O)Nc4ncc(C)s4)c(C)c3)CC2)C1 [CPD-191]
P300 and CBP [1]
  DC50: < 10 nM
P300 and CBP [1]; dose range
  reduction of P300 and CBP protein levels: significantly reduced
P300/CBP
  P300/CBP Degradation (100 nM): A (degradation activity >= 80%)
P300 and CBP [2]
  P300 and CBP protein levels: reduced P300 and CBP protein levels in a concentration-dependent manner

## CC(=O)c1c(C)c2cnc(Nc3ccc(N4CCN(CCOCCOCCOCCNC(=O)COc5cccc6c5C(=O)N(C5CCC(=O)NC5=O)C6=O)CC4)cn3)nc2n(C2CCCC2)c1=O (centres unmarked) [BSJ-03-123, reference compound]
[3]
  cyclin D1 protein levels: did not affect
Calu-1
  cell viability (cellular anti-proliferation activity): didn't significantly suppress tumor cell viability
Calu-1 cells
  Calu-1 cell growth: did not affect cyclin D1 protein levels (FIG. 11A) or suppress Calu-1 cell growth
[4]
  CDK4 and CDK6 protein levels: significantly reduced CDK4 and CDK6 protein levels
  cyclin DC protein levels: didn't affect cyclin DC protein levels
CDK4, CDK6
  CDK4 and CDK6 protein levels: significantly reduced

## CNc1ccc(C(=O)Nc2ccc(OC)nn2)c(NC(=O)CCOCCOCCNC(=O)CN2CCN(c3ccc(N(C)c4ncc5c(C)c(C(C)=O)c(=O)n(C6CCCC6)c5n4)nc3)CC2)c1 [CPD-380]
Cyclin D
  degradation potencies compared with corresponding active heterobifunctional compound: much weaker degradation potencies
T47D cells [5]
  cell viability (cellular anti-proliferation activity): much weaker cellular anti-proliferation activities
[6]
  decrease of degradation potency versus corresponding active compound: > 15 fold
T47D cells [7]; 10 nM
  Annexin V+ population: 7.1%
T47D cells [7]; 200 nM
  Annexin V+ population: 28.6%
T47D cells [8]
  decrease of cellular anti-proliferation activity versus corresponding active compound: > 20 fold
T47D cells [9]
  effect on cell apoptosis: much less effect on cell apoptosis
